Assay results reported in ChEMBL document CHEMBL3992486 (Medchemcomm, 2016).
Converted amounts (≈) assume the structure as drawn.

Legend:
[1] = system: Mycobacterium tuberculosis; experiment: Antimycobacterial activity against dormant Mycobacterium tuberculosis H37Ra ATCC 25177 after 12 days by XTT dye based two-fold dilution method; assay type: functional; conditions: H37Ra ATCC 25177, 288 h
[2] = system: Mycobacterium tuberculosis; experiment: Antimycobacterial activity against dormant Mycobacterium bovis BCG ATCC 35743 after 12 days by neutral red dye based two-fold dilution method; assay type: functional; conditions: BCG str. ATCC 35743, 288 h
[3] = Selectivity index, ratio of GI50 for human MCF7 cells to MIC for dormant Mycobacterium tuberculosis H37Ra ATCC 25177; assay type: toxicity; conditions: pooled result: one value given for 3 cell lines, strains, targets or settings, read-out: Selectivity Index
[4] = Selectivity index, ratio of GI50 for human MCF7 cells to MIC for dormant Mycobacterium bovis BCG ATCC 35743; assay type: toxicity; conditions: pooled result: one value given for 3 cell lines, strains, targets or settings, read-out: Selectivity Index
[5] = Cytotoxicity against human MCF7 cells by MTT assay; assay type: cell-based
[6] = Cytotoxicity against human A549 cells by MTT assay; assay type: cell-based

**Q.** What does the source list for `Cc1ccc2c(c1)cc(C1SCC(=O)N1NC(=O)c1ccncc1)c1nnnn12` (centres undefined)?
**A.** MIC [1]: 2140 µM (≈ 868 µg/mL); MIC [2]: 8430 µM (≈ 3420 µg/mL); selectivity ratio [3]: 115; selectivity ratio [4]: 29.2

**Q.** Which MIC [1] does the source give for `COc1ccc2c(c1)cc(C1SCC(=O)N1NC(=O)c1ccncc1)c1nnnn12` (centres undefined) here?
**A.** Its MIC is 990 µM (≈ 417 µg/mL).

**Q.** And the MIC [2]?
**A.** The MIC was 140 µM (≈ 59 µg/mL).

**Q.** What about the selectivity ratio [3] of the same molecule?
**A.** Its selectivity ratio is 238.

**Q.** What about the selectivity ratio [4] of the same molecule?
**A.** The selectivity ratio was 11.8.

**Q.** What does the source list for `Cc1cccc2cc(C3SCC(=O)N3NC(=O)c3ccncc3)c3nnnn3c12` (centres undefined)?
**A.** MIC [1]: 1770 µM (≈ 718 µg/mL); MIC [2]: 510 µM (≈ 207 µg/mL); selectivity ratio [3]: 139; selectivity ratio [4]: 476

**Q.** With `CC(=O)O[C@H]1C(=O)[C@@]2(C)[C@H]([C@H](OC(=O)c3ccccc3)[C@]3(O)C[C@H](OC(=O)[C@H](O)[C@@H](NC(=O)c4ccccc4)c4ccccc4)C(C)=C1C3(C)C)[C@]1(OC(C)=O)CO[C@@H]1C[C@@H]2O` [PACLITAXEL] as the molecule, how does the GI50 [5] read?
**A.** The GI50 was 87 µM.

**Q.** What about the GI50 [6] of the same molecule?
**A.** Its GI50 is 80 µM.

**Q.** For `O=C(NN1C(=O)CSC1c1cc2ccccc2n2nnnc12)c1ccncc1` (centres undefined), which MIC [2] is on record?
**A.** The MIC was 430 µM (≈ 168 µg/mL).

**Q.** What about the selectivity ratio [3] of the same molecule?
**A.** The selectivity ratio was 18.9.

**Q.** And the selectivity ratio [4]?
**A.** The selectivity ratio was 588.

**Q.** Which MIC [1] does the source give for `Cc1ccc2cc(C3SCC(=O)N3NC(=O)c3ccncc3)c3nnnn3c2c1` (centres undefined) here?
**A.** Its MIC is 2610 µM (≈ 1060 µg/mL).

**Q.** And the MIC [2]?
**A.** Its MIC is 300 µM (≈ 122 µg/mL).

**Q.** What about the selectivity ratio [3] of the same molecule?
**A.** Its selectivity ratio is 94.3.

**Q.** And the selectivity ratio [4]?
**A.** Its selectivity ratio is 833.

**Q.** With `COc1ccc2cc(C3SCC(=O)N3NC(=O)c3ccncc3)c3nnnn3c2c1` (centres undefined) as the molecule, how does the MIC [1] read?
**A.** The MIC was 1660 µM (≈ 700 µg/mL).

**Q.** And the MIC [2]?
**A.** The MIC was 360 µM (≈ 152 µg/mL).

**Q.** And the selectivity ratio [3]?
**A.** Its selectivity ratio is 143.

**Q.** What about the selectivity ratio [4] of the same molecule?
**A.** Its selectivity ratio is 667.

**Q.** What does the source list for `CO[C@H]1/C=C/O[C@@]2(C)Oc3c(C)c(O)c4c(O)c(c(/C=N/N5CCN(C)CC5)c(O)c4c3C2=O)NC(=O)/C(C)=C\C=C\[C@H](C)[C@H](O)[C@@H](C)[C@@H](O)[C@@H](C)[C@H](OC(C)=O)[C@@H]1C` [RIFAMPIN]?
**A.** MIC [1]: 24 µM (≈ 19.8 µg/mL); MIC [2]: 21 µM (≈ 17.3 µg/mL); selectivity ratio [3]: > 5000; selectivity ratio [4]: 1750
